Experiments:
[1] = target: T1, hPPAR gamma (Homo sapiens, UniProt P37231); assay: Transient transfection (transactivation) assay in CV-1 cells, GAL4-PPAR LBD chimera, SPAP reporter; assay type: cell-based; settings: read-out: EC50 μM HPPARγ
T1 construct: expressed in transfected cells; host or cells: CV-1 cells
T1 sequence (P37231 238-503 limits assumed): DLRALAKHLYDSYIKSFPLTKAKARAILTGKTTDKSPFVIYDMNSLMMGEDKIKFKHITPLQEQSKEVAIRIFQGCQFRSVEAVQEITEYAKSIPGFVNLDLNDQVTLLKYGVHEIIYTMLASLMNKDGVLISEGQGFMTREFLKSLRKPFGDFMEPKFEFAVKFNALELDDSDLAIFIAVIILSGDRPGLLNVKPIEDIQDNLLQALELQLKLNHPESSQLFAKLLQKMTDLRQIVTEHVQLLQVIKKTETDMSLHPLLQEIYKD
How it was run: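 CV-1 cells were transiently transfected with a GAL4 DBD–human PPARγ LBD chimera, a 5×GAL4-site SPAP reporter and β-galactosidase. After 16 h, the cells were exposed to compound in DME with 10% delipidated FCS for 24 h. Alkaline phosphatase and β-galactosidase activities were then measured in cell extracts.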

[2] = target: T2, hPPAR delta (Homo sapiens, UniProt Q03181); assay: Transient transfection (transactivation) assay in CV-1 cells, GAL4-PPAR LBD chimera, SPAP reporter; assay type: cell-based; settings: read-out: EC50 μM HPPARδ
T2 construct: expressed in transfected cells; host or cells: CV-1 cells
T2 sequence (Q03181 211-439 limits assumed): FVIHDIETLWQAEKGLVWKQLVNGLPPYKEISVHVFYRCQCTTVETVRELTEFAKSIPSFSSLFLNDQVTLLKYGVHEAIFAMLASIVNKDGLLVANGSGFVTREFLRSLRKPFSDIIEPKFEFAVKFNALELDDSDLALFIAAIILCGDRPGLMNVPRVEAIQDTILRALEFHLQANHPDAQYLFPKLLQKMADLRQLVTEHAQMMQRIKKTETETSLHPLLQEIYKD
How it was run: (§1)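 CV-1 cells transiently co-transfected with GAL4 DBD–human PPAR LBD chimera plus 5×GAL4-site SPAP reporter and β-galactosidase; after 16 h, compound added in DME with 10% delipidated FCS for 24 h. SPAP activity normalised to β-galactosidase; values in μM.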

[3] = target: T3, hPPAR alpha (Homo sapiens, UniProt Q07869); assay: as above; assay type: cell-based; settings: read-out: EC50 μM HPPARα
T3 construct: expressed in transfected cells; host or cells: CV-1 cells
T3 sequence (Q07869 239-466 limits assumed): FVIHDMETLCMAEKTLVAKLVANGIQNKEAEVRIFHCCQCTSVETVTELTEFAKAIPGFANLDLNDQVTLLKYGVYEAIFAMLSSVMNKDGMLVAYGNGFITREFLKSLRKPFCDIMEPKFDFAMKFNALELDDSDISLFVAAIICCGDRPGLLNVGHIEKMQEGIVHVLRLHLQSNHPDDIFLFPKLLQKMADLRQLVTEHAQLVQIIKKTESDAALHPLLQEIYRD
How it was run: as §1

Cc1cc(CNC(=O)c2cc(-c3ccc(C(C)(C)C)cc3)nn2C)cc(C)c1OC(C)(C)C(=O)O [Example 26, 2-{4-[({[3-(4-tert-butylphenyl)-1-methyl-1H-pyrazol-5-yl]carbonyl}amino)methyl]-2,6-dimethylphenoxy}-2-methylpropanoic acid]
EC50 [1]: 0.016 µM | melting point: > 122 °C | EC50 [2]: 1 µM | EC50 [3]: 0.003 µM

Cc1cc(CNC(=O)c2cc(-c3ccc(CC(C)C)cc3)n(C)n2)cc(Cl)c1OC(C)(C)C(=O)O [Example 27, 2-{2-chloro-4-[({[5-(4-isobutylphenyl)-1-methyl-1H-pyrazol-3-yl]carbonyl}amino)methyl]-6-methylphenoxy}-2-methylpropanoic acid]
EC50 [1]: 0.031 µM | melting point: 75 to 80 °C | EC50 [2]: 0.206 µM | EC50 [3]: < 0.001 µM

Cc1cc(CNC(=O)c2cc(-c3cccc(-c4ccccc4)c3)nn2C)ccc1OC(C)(C)C(=O)O [Example 28, 2-[4-({[(3-biphenyl-3-yl-1-methyl-1H-pyrazol-5-yl)carbonyl]amino}methyl)-2-methylphenoxy]-2-methylpropanoic acid]
EC50 [1]: 1.47 µM | melting point: 88 °C | EC50 [2]: > 25 µM | EC50 [3]: 0.589 µM

Cc1cc(CNC(=O)c2cc(-c3ccc(Br)cc3)n(C)n2)ccc1OC(C)(C)C(=O)O [Example 30, 2-({4-[({[5-(4-bromophenyl)-1-methyl-1H-pyrazol-3-yl]carbonyl}amino)methyl]-2-methylphenyl}oxy)-2-methylpropanoic acid]
EC50 [1]: 0.229 µM | melting point: 84 to 92 °C | EC50 [2]: 3.12 µM | EC50 [3]: 0.046 µM

Cc1cc(CNC(=O)c2cc(-c3ccc(-c4cccs4)cc3)n(C)n2)ccc1OC(C)(C)C(=O)O [Example 32, 2-methyl-2-[(2-methyl-4-{[({1-methyl-5-[4-(2-thienyl)phenyl]-1H-pyrazol-3-yl}carbonyl)amino]methyl}phenyl)oxy]propanoic acid]
EC50 [1]: 0.023 µM | melting point: 92 °C | EC50 [2]: > 25 µM | EC50 [3]: 0.015 µM

Cc1cc(CNC(=O)c2cc(-c3ccc(-c4ccco4)cc3)n(C)n2)ccc1OC(C)(C)C(=O)O [Example 35, 2-[(4-{[({5-[4-(2-furanyl)phenyl]-1-methyl-1H-prazol-3-yl}carbonyl)amino]methyl}-2-methylphenyl)oxy]-2-methylpropanoic acid]
EC50 [1]: 0.054 µM | melting point: 96 °C | EC50 [2]: > 25 µM | EC50 [3]: 0.024 µM

Cc1cc(CNC(=O)c2cc(-c3ccc(-c4ccccc4C)cc3)nn2C)ccc1OC(C)(C)C(=O)O [Example 36, 2-methyl-2-{2-methyl-4-[({[1-methyl-3-(2′-methylbiphenyl-4-yl)-1H-pyrazol-5-yl]carbonyl}amino)methyl]phenoxy}propanoic acid]
EC50 [1]: 0.037 µM | melting point: 90 to 100 °C | EC50 [2]: 5.17 µM | EC50 [3]: 0.176 µM

CCCCc1ccc(-c2cc(C(=O)NCc3cc(C)c(OC(C)(C)C(=O)O)c(C)c3)nn2C)cc1 [Example 37, 2-{4-[({[5-(4-butylphenyl)-1-methyl-1H-pyrazol-3-yl]carbonyl}amino)methyl]-2,6-dimethylphenoxy}-2-methylpropanoic acid]
EC50 [1]: 0.021 µM | melting point: 72 °C | EC50 [2]: 0.449 µM | EC50 [3]: 0.006 µM

CCCCc1ccc(-c2cc(C(=O)NCc3cc(C)c(OC(C)(C)C(=O)O)c(Cl)c3)nn2C)cc1 [Example 38, 2-{4-[({[5-(4-butylphenyl)-1-methyl-1H-pyrazol-3-yl]carbonyl}amino)methyl]-2-chloro-6-methylphenoxy}-2-methylpropanoic acid]
EC50 [1]: 0.072 µM | melting point: 74 °C | EC50 [2]: > 25 µM | EC50 [3]: 0.01 µM

COCCn1nc(-c2ccc(C(C)(C)C)cc2)cc1C(=O)NCc1ccc(OC(C)(C)C(=O)O)c(C)c1 [Example 48, 2-[(4-{[({3-[4-(1,1-dimethylethyl)phenyl]-1-[2-(methyloxy)ethyl]-1H-pyrazol-5-yl}carbonyl)amino]methyl}-2-methylphenyl)oxy]-2-methylpropanoic acid]
EC50 [1]: 0.303 µM | melting point: 112 °C | EC50 [2]: 2.05 µM | EC50 [3]: 0.066 µM

Cc1cc(CNC(=O)c2cc(-c3ccc(C(C)(C)C)cc3)nn2CC(=O)c2ccccc2)ccc1OC(C)(C)C(=O)O [Example 49, 2-({4-[({[3-[4-(1,1-dimethylethyl)phenyl]-1-(2-oxo-2-phenylethyl)-1H-pyrazol-5-yl]carbonyl}amino)methyl]-2methylphenyl}oxy)-2-methylpropanoic acid]
EC50 [1]: 0.052 µM | melting point: 116 °C | EC50 [2]: 1.17 µM | EC50 [3]: 0.257 µM

COCCn1nc(C(=O)NCc2ccc(OC(C)(C)C(=O)O)c(C)c2)cc1-c1ccc(C(C)(C)C)cc1 [Example 52, 2-[(4-{[({5-[4-(1,1-dimethylethyl)phenyl]-1-[2-(methyloxy)ethyl]-1H-pyrazol-3-yl}carbonyl)amino]methyl}-2-methylphenyl)oxy]-2-methylpropanoic acid]
EC50 [1]: 0.478 µM | melting point: 65 °C | EC50 [2]: > 25 µM | EC50 [3]: 0.042 µM

Cc1cc(CNC(=O)c2cc(-c3ccc(C(C)(C)C)cc3)[nH]n2)ccc1OC(C)(C)C(=O)O [Example 53, 2-[(4-{[({5-[4-(1,1-dimethylethyl)phenyl]-1H-pyrazol-3-yl}carbonyl)amino]methyl}-2-methylphenyl)oxy]-2-methylpropanoic acid]
EC50 [1]: 0.269 µM | melting point: 100 °C | EC50 [2]: > 25 µM | EC50 [3]: 0.383 µM

C=CCOc1ccc(-c2cc(C(=O)NCc3ccc(OC(C)(C)C(=O)O)c(C)c3)n(C)n2)cc1 [Example 56, 2-methyl-2-[(2-methyl-4-{[({1-methyl-3-[4-(2-propen-1-yloxy)phenyl]-1H-pyrazol-5-yl}carbonyl)amino]methyl}phenyl)oxy]propanoic acid]
EC50 [1]: 0.287 µM | melting point: 70 °C | EC50 [2]: > 25 µM | EC50 [3]: 0.894 µM

Cc1cc(CNC(=O)c2cc(-c3ccc(OCc4ccccc4)cc3)nn2C)ccc1OC(C)(C)C(=O)O [Example 57, 2-methyl-2-{[2-methyl-4-({[(1-methyl-3-{4-[(phenylmethyl)oxy]phenyl}-1H-pyrazol-5-yl)carbonyl]amino}methyl)phenyl]oxy}propanoic acid]
EC50 [1]: 0.118 µM | melting point: 72 °C | EC50 [2]: > 8 µM | EC50 [3]: 0.657 µM

Source: patent US20080021030A1, “Substituted Pyrazoles As Ppar Agonists” (priority 2003, published 2008)
